Patent US20220088195A1, “Prevention or mitigation of T-cell bispecific antibody-related adverse effects” (Hoffmann-La Roche Inc., priority 2020, published 2022)

Assays:
Format in all cases: cell-based, human
[1] = tested on: IFN-γ, IL-2 and TNF-α release; experiment: Cytokine release in supernatants of the CEA-TCB killing assay (Luminex, 96 hours); settings: dasatinib above 12.5 nM, 1 nM CEA-TCB
Method: Cytokine release. Supernatant were collected at the endpoint (96 hours) of the assay in FIG. 1 and cytokines ((A) IFNγ, (B) IL-2, (C) TNF-α) measured by multiplex cytokine analysis (Luminex). 1 nM CEA-TCB, 1 donor.

SKM-1 tumor cells = experiment: Two-stimulation (ON/OFF) killing assay, PBMCs + CFSE/CTV labelled SKM-1 cells + HLA-A2 WT-1-TCB, FACS
Method: FIG. 8. In vitro killing assay set-up and timelines. PBMCs were co-cultured with carboxyfluorescein succinimidyl ester (CFSE) labelled SKM-1 target cells (E:T=5:1) and 10 nM HLA-A2 WT-1-TCB for 20h. Activated PBMCs were washed and restimulated on fresh, CTV labelled SKM-1 target cells (E:T=5:1) and 10 nM HLA-A2 WT-1-TCB in the presence or absence of 100 nM dasatinib.
FIG. 10. SKM-1 target cell viability upon first stimulation with 10 nM HLA-A2 WT-1-TCB in the absence of dasatinib (left) and upon second stimulation with 10 nM HLA-A2 WT-1-TCB in the presence of 100 nM dasatinib (right). Target cell viability was measured by FACS after 44h in the assay of FIG. 8. Dead CFSE labelled SKM-1 cells were gated on positive near infrared (NIR) cells (left side). Dead CTV labelled SKM-1 cells were gated on positive NIR cells (right side).
FIG. 11. HLA-A2 WT-1-TCB dose response for dead CFSE and CTV SKM-1 cells used for first and second stimulation in the presence and absence of dasatinib in the assay of FIG. 8. Mean+/−SEM of 3 donors, two-tailed paired t test (for each concentration), 2 tailed p values: 0.1234 (ns), 0.0332 (*), 0.0021 (**), 0.0002 (***), <0.0001 (****).
To assess whether dasatinib can efficiently prevent TCB-mediated target cell killing by activated T cells, we set up an in vitro killing assay with two stimulation steps, mimicking an ON/OFF switch. […]

[2] = tested on: IFN-γ, IL-2 and TNF-α release; experiment: Cytokine levels in supernatants of the reversibility assay (Luminex)
Method: FIG. 18. […] Cytokines ((A) IFN-γ, (B) IL-2, (C) TNF-α) were measured with a multiplex cytokine kit (Luminex technology). 1 donor.
FIG. 20. Cytokine levels in the supernatants of the assay after first stimulation in the absence of 25 nM dasatinib and after second stimulation in the presence of 25 nM dasatinib, in the assay of FIG. 16 (“ON/OFF”). Cytokines ((A) IFN-γ, (B) IL-2, (C) TNF-α) were measured with a multiplex cytokine kit (Luminex technology). 1 donor.
FIG. 22. Cytokine release. Supernatants were collected after first and second stimulation in the assay of FIG. 16 and cytokines ((A) TNF-α, (B) IFN-γ, (C) IL-2) measured using a multiplex cytokine kit (Luminex).
We then verified if dasatinib's effect is reversible upon its removal. Therefore we set-up a killing assay with two and three stimulations in the presence and absence of dasatinib and followed the killing kinetics using an Incucyte® system (FIG. 16). After each stimulation, effector cells were washed and re-stimulated on fresh MKN45 NLR target cells with 1 nM CEA TCB in the presence and absence of dasatinib allowing to mimic OFF/ON switch and ON/OFF/ON switch.
Lastly, we evaluated if the effect of dasatinib was reversible on activated T cells. Consequently, we supplemented the media with 25 nM dasatinib upon the second stimulation with 1 nM CEA-TCB to prevent killing from activated T cells and then removed the dasatinib upon third stimulation with 1 nM CEA-TCB to verify if killing would be restored.
We were curious to see if low doses of dasatinib could prevent cytokine release while minimally affecting TCB-efficacy upon first stimulation. In killing assays as described in FIG. 16, the cytokine levels upon first treatment with 1 nM CEA-TCB in the presence of 6.25 nM and 12.5 nM dasatinib and upon second treatment with 1 nM CEA-TCB in the absence of dasatinib were measured in the supernatants.

In the case of `Cc1nc(Nc2ncc(C(=O)Nc3c(C)cccc3Cl)s2)cc(N2CCN(CCO)CC2)n1` [dasatinib, N-(2-chloro-6-methylphenyl)-2-[[6-[4-(2-hydroxyethyl)-1-piperazinyl]-2-methyl-4-pyrimidinyl]amino]-5-thiazole carboxamide monohydrate], the “release of IFN-γ, IL-2 and TNF-α” value [1] is reported as “prevented the release”, the “CTV labelled SKM-1 cells alive upon second stimulation” value (SKM-1 tumor cells; 10 nM HLA-A2 WT-1 TCB in the presence of 100 nM dasatinib) is reported as 87.6% and the “killing of CTV labelled SKM-1 cells (ON/OFF versus ON/ON)” value (SKM-1 tumor cells; 100 nM dasatinib upon re-stimulation) is reported as “effectively prevented the killing”. The “release of IFN-γ, IL-2 and TNF-α during first stimulation” value ([2]; 6.25 nM and 12.5 nM dasatinib, 1 nM CEA-TCB) was “lowered the release”, the “release of IFN-γ, IL-2 and TNF-α (ON/OFF)” value ([2]; 25 nM dasatinib upon second stimulation, 1 nM CEA-TCB) was “prevented the release” and the “T-cell derived cytokine release (IFN-γ, IL-2, TNF-α) after first stimulation” value ([2]; 25 nM dasatinib, 1 nM CEA-TCB) was “full inhibition”. The “levels of TNF-α, IL-2 and IFN-γ during second stimulation” value ([2]; dasatinib (6.25 nM, 12.5 nM) removed) was “remained low” and the “release of IFN-γ, IL-2 and TNF-α after removal of dasatinib and restimulation” value ([2]; removal of 25 nM dasatinib, restimulation with 1 nM CEA-TCB) was “T cell functionality was restored upon dasatinib removal”.
